Measurements reported in PubChem BioAssay (NCI).
“And” between values parts separate entries of the source, which are not always exact repeats. Identical values can stand only once.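 Five concentrations, 48 hours, 96-well plates. At the GI50, growth is halved. TGI is the concentration that stops growth completely.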

Columns and labels:
Assay in all cases: NCI anticancer screen, dose series, 48 h
A549 NSCLC = test system: A549 NSCLC
DLD-1 colon = test system: DLD-1 colon
KM20L2 colon = test system: KM20L2 colon
NCI-H23 lung = test system: NCI-H23 lung
SF-539 CNS = test system: SF-539 CNS
SK-OV-3 ovarian = test system: SK-OV-3 ovarian
SN12C renal = test system: SN12C renal
SNB-78 CNS = test system: SNB-78 CNS
DMS 114 small cell lung = test system: DMS 114 small cell lung
NCI-H226 lung = test system: NCI-H226 lung
MDA-MB-435 = test system: MDA-MB-435
PC-3 prostate = test system: PC-3 prostate

| Structure (SMILES) | TGI (A549 NSCLC) | TGI (DLD-1 colon) [µM] | TGI (KM20L2 colon) [µM] | TGI (NCI-H23 lung) | TGI (SF-539 CNS) | TGI (SK-OV-3 ovarian) | TGI (SN12C renal) | TGI (SNB-78 CNS) [µM] | TGI (DMS 114 small cell lung) [µM] | TGI (NCI-H226 lung) | TGI (MDA-MB-435) | GI50 (A549 NSCLC) | GI50 (NCI-H226 lung) | GI50 (NCI-H23 lung) | GI50 (PC-3 prostate) | TGI (PC-3 prostate) | GI50 (SF-539 CNS) | GI50 (SK-OV-3 ovarian) | GI50 (SN12C renal) | GI50 (MDA-MB-435) [µM] |
| --- | --- | --- | --- | --- | --- | --- | --- | --- | --- | --- | --- | --- | --- | --- | --- | --- | --- | --- | --- | --- |
| CC1CC(C2=CC=CCS2)=Nc2ccccc2S1 (configuration not stated) | > 100 µM | > 100 | > 100 | > 100 µM | > 100 µM | > 100 µM | > 100 µM | > 100 |  |  |  |  |  |  |  |  |  |  |  |  |
| CC(C)/C=C1\CCC(CN2CCCC2)C1=O (configuration not stated) | 20.1 µM | 10.4 | 36 | 33.8 µM | 35.6 µM | > 100 µM | 34.8 µM | 51.2 | 34.5 | 49.6 µM |  |  |  |  |  |  |  |  |  |  |
| CCOC(=O)Nc1cc2nnc(-c3ccccc3)nc2c(N)n1 | 35.1 µM | > 100 | 20.4 | 64.2 µM | 61.9 µM | 39.9 µM | > 100 µM |  | > 100 | 71.8 µM |  |  |  |  |  |  |  |  |  |  |
| CC(C)(C)NNC(=O)/C(=C/c1ccc([N+](=O)[O-])cc1)NC(=O)c1ccccc1 | > 100 µM | > 100 | > 100 | > 100 µM | > 100 µM | > 100 µM | > 100 µM | > 100 | 35.9 | 96.5 µM |  |  |  |  |  |  |  |  |  |  |
| COC(=O)C1=C(c2ccc(OC)c(OC)c2)OC(c2ccc(OC)c(OC)c2)C1 (configuration not stated) | > 100 µM | > 100 | > 100 | > 100 µM | > 100 µM | 96.7 µM | > 100 µM | > 100 | 77.5 | > 100 µM |  |  |  |  |  |  |  |  |  |  |
| CCOc1ccccc1NC(=O)CC1C(=O)Nc2ccccc2S1=O (configuration not stated) | > 100 µM | > 100 | > 100 | > 100 µM | > 100 µM |  | > 100 µM | > 100 | > 100 | > 100 µM |  |  |  |  |  |  |  |  |  |  |
| COc1cc(/C=C/c2ccncc2)cc(OC)c1OC | > 100 µM | > 100 | > 100 | > 100 µM | > 100 µM |  | > 100 µM | > 100 | > 100 | > 100 µM |  |  |  |  |  |  |  |  |  |  |
| COc1ccc(C(=O)c2cc(OC)c(OC)c(OC)c2)cc1 | > 100 µM | > 100 |  | > 100 µM | 1.28 µM | > 13.7 µM | > 100 µM |  | > 100 | 37.9 µM | 0.0424 µM |  |  |  |  |  |  |  |  |  |
| CS/C(=N\C(=S)N(C)C)N(c1ccccc1)c1nc(=[N+](C)C)ss1 | 22.3 µM |  | 50.3 | 51.7 µM | 25.5 µM | > 100 µM | 37.9 µM | 92.8 | 2.28 |  |  |  |  |  |  |  |  |  |  |  |
| O=C(Nc1ccc(Cl)cc1Cl)C1C(=O)N(c2ccc(Cl)cc2Cl)C(=O)/C1=N\Nc1ccc([N+](=O)[O-])cc1[N+](=O)[O-] (configuration not stated) | > 100 µM | > 100 | > 100 | 87.6 µM | > 100 µM | > 100 µM | > 100 µM | > 100 | 66.8 | > 100 µM |  |  |  |  |  |  |  |  |  |  |
| O=C(Nc1c(O)[nH]c(=S)[nH]c1=O)c1ccccc1F | > 100 µM | > 100 | > 100 | > 100 µM | > 100 µM | > 100 µM | > 100 µM | > 100 | > 100 | > 100 µM |  |  |  |  |  |  |  |  |  |  |
| CN(C)c1ccc2c(=O)c3ccccc3oc2n1 | > 100 µM | > 100 | > 100 | > 100 µM |  | > 100 µM | > 100 µM | > 100 | > 100 |  |  |  |  |  |  |  |  |  |  |  |
| Cc1ccc(S(=O)(=O)N[C@H](C(=O)O)c2ccccc2)cc1 | > 100 µM | > 100 | > 100 | > 100 µM | > 100 µM | > 100 µM | > 100 µM |  |  | > 100 µM |  |  |  |  |  |  |  |  |  |  |
| Cc1ccc(NC(=O)c2cc3cc(N=Nc4ccc(Br)cc4)ccc3oc2=O)cc1 | > 100 µM | > 100 |  | > 100 µM |  | > 100 µM | > 100 µM | > 100 | > 100 | > 100 µM |  |  |  |  |  |  |  |  |  |  |
| N#Cc1ccccc1NC(=O)/C(=N\N)C(C(=O)c1ccncc1)C1OC(=O)c2ccccc21 (configuration not stated) | > 100 µM |  | > 100 | > 100 µM | > 100 µM | > 100 µM | > 100 µM |  |  | > 100 µM |  |  |  |  |  |  |  |  |  |  |
| CC1CC[C@]2(C(=O)O)CCC3(COC(=O)/C=C\c4ccc(O)cc4)C(=CCC4[C@@]5(C)CC[C@H](O)C(C)(C)C5CC[C@]43C)[C@@H]2[C@H]1C (some centres not stated) | 26.3 µM | 30.8 | 33.6 | 28.5 µM | 31.3 µM | 21.6 µM | 54.2 µM | > 100 | > 100 | 39.5 µM |  |  |  |  |  |  |  |  |  |  |
| CN(C)CCOc1ccc(-c2nc(-c3ccc4c(c3)CC/C4=N\O)c(-c3ccncc3)[nH]2)cc1 | 9.68 µM and 32.7 µM |  |  | 7.85 µM and 25.7 µM | 9.3 µM and 7.77 µM | 7.52 µM and 22.1 µM | 8.83 µM and 25.9 µM |  |  | 9.77 µM and 17.1 µM | 5.17 µM and 41.2 µM | 4.76 µM and 6.36 µM | 4.72 µM and 8.03 µM | 3.23 µM and 3.98 µM | 4.09 µM and 5.66 µM | 8.12 µM and 13.7 µM | 4.74 µM and 4.07 µM | 3.67 µM and 9.66 µM | 4.68 µM and 9.41 µM |  |
| CCNC(=O)[C@@H]1CCCN2C(=O)CC[C@H](NC(=O)[C@H](Cc3ccc(OP(=O)(O)O)cc3)NC(C)=O)C(=O)N12 | > 25 µM |  |  | > 25 µM | > 25 µM | > 25 µM | > 25 µM |  |  | > 25 µM | > 25 µM | > 25 µM | > 25 µM | > 25 µM | > 25 µM | > 25 µM | > 25 µM | > 25 µM | > 25 µM | > 25 |
| Cc1ccc([N+](=O)[O-])cc1NC(=O)Nc1cccc(F)c1 | 26.2 µM |  |  | > 100 µM | 33.6 µM | 49.4 µM | > 100 µM |  |  | > 100 µM | > 100 µM | 3.42 µM | 7.54 µM | 2.61 µM | 3.44 µM | > 100 µM | 7.2 µM | 13.1 µM | 5.18 µM | 3.8 |
| Nc1c(C(=O)c2cccc(CCCN3CCOCC3)c2)cnn1-c1ccc(F)cc1 | > 25 µM |  |  | > 25 µM | > 25 µM | > 25 µM | > 25 µM |  |  | > 25 µM | > 25 µM | > 25 µM | > 25 µM | > 25 µM | > 25 µM | > 25 µM | > 25 µM | > 25 µM | > 25 µM | > 25 |
| CCCCON(OC(=O)c1ccccc1)C(=O)c1ccccc1 | > 100 µM |  |  | > 100 µM | > 100 µM | > 100 µM | > 100 µM |  |  | > 100 µM | > 100 µM | > 100 µM | > 100 µM | > 100 µM | > 100 µM | > 100 µM | > 100 µM | > 100 µM | > 100 µM | > 100 |
